According to patent publication US20040152631A1, “Methods for manipulating ejaculatory reflex and sensation of ejaculation and for treating sexual dysfunction” (priority 2002, published 2004):
“And” between values parts separate entries of the source, which are not always exact repeats. Equal entries are not always repeated.

Legend:
LSt neurons [1] = test: Fos-IR in galanin-IR LSt neurons after 8-OH-DPAT; format: in vivo, male rats; conditions: 0.8 mg/kg s.c.
Procedure: Activation of LSt neurons is assessed using Fos immunoreactivity (IR) as a marker for neural activation and galanin or CCK-IR to identify LSt cells.
One hour following the end of the behavioral test, animals are anesthetized using sodium pentobarbital (200 mg/kg; i.p.) and perfused transcardially with 100 ml 0.9% saline, followed by 500 ml of 4% paraformaldehyde in 0.1 M sodium phosphate buffer (PB, pH 7.3-7.4). Brain and spinal cords are removed and post fixed for 1 hr at room temperature in the fixative. Coronal sections of thoracic (T), lumbar (L) and sacral (S) spinal cord (T10-S4) are cut at 35 μm on a Microm freezing microtome (Richard Allen, Kalamazoo, Mich.) and collected in twelve parallel series in cryorotectant solution (30% sucrose, 30% ethylene glycol in 0.1 M PB; Watson et al, 1985). In addition, coronal sections ( 35 µm) through thalamus are cut and stored in four parallel series.
All incubations are performed at room temperature with gentle agitation. Series of spinal cord sections ([…]) are rinsed extensively in phosphate buffered saline (PBS) between incubations. Free-floating sections are blocked with 1% H2O2 for 10 min at room temperature and then soaked for one hour in incubation solution (PBS containing 0.1% bovine serum albumin and 0.4% triton X-100). Next, sections are incubated overnight with a primary antiserum in incubation solution to recognize Fos (polyclonal anti-Fos antiserum raised in rabbit; 1:10,000; Santa Cruz, Santa Cruz, Calif.). […]
Analysis of labeling for galanin or CCK, Fos, and dual labeling for Fos and Galanin or CCK, is performed on a Leica light microscope at 4×-40× magnification. Neurons single labeled for galanin or CCK are determined by brown staining of cytoplasm with a nucleus devoid of blue-black (Fos) reaction product. […] Dual labeling is expressed as the percentage of galanin or CCK cells that expressed Fos. […]

male rats = test: Copulatory behavior after 8-OH-DPAT; format: in vivo; conditions: 0.8 mg/kg s.c. 30 minutes before test; E1-DP rats, n=3
Procedure: All male and female rats are sexually experienced. […] The female rats are bilaterally ovariectomized two weeks prior to testing. Sexual receptivity is induced using a standard regimen of exogenous estrogen and progesterone, similar to that used for the stimulus females, described above. One week before testing females receive hormone treatment and mating experience with sexually experienced male partners. All testing of experimental groups is performed four hours after onset of the dark period, in a rectangular mating arena (60-45-50 cm), under dim red illumination. After completion of the mating tests, the sexual partners are removed, and experimental animals remained in the test cage for an additional 60 minutes until sacrifice.
The number of mounts, intromissions and total duration of the tests, are recorded for analysis of copulatory behavior. Numbers of mounts and intromissions, as well as duration of test are compared using a one-way ANOVA. Post hoc comparisons are made using the Scheffe test with an alpha of 0.05 required for rejection of the null hypothesis.
The purpose of this example is to investigate neural activation of lumbar spinal cord in male rats that display minimal sexual activity prior to ejaculation. Therefore, male rats are treated with 8-hydroxy-2-(di-n-propylamino) tetralin (8-OH-DPAT), which decreases the number of mounts and intromissions prior to ejaculation. […]

LSt neurons [2] = test: Sexual behavior tests after lesion surgery; format: in vivo, male rats; conditions: 6 post-surgery tests, 100 minutes with receptive female
Procedure: (§1) Control animals are injected with non-conjugated equimolar concentrations of SAP. […] Rats with obvious motor impairment after surgery (n=10; 7 injected with SAP; 3 injected with SSP-SAP) are excluded from the study. Sexual behavior is first tested 10 days after lesion surgery, and during 5 subsequent twice-weekly tests. The trials are performed during the dark phase of the light cycle and consisted of the male rat being placed into the testing cage for 100 minutes with a receptive female. Stimulus females were ovariectomized and implanted subcutaneously (s.c.) with 5% 17-beta-estradiol benzoate silastic capsules. Progesterone (500 μg in 0.1 ml of sesame oil) was injected (s.c.) 4-6 hours prior to testing to induce sexual receptivity. Latencies and numbers of mounts, intromissions, and ejaculations are recorded, and vaginas of females are checked for seminal plugs multiple times during mating tests.
The effects of LSt lesions on display of sexual behavior are assessed in the three groups described above. LSt lesions have a dramatic effect on sexual behavior. […] Furthermore, ablation of LSt neurons appears to selectively block ejaculatory behavior while not affecting other components of sexual behavior.

LSt neurons [3] = test: Cell counts (galanin-IR, SPR-IR, NeuN-IR) in L3-L4 spinal cord after intraspinal SSP-SAP or SAP; format: in vivo; conditions: complete = galanin-IR LSt neurons less than 1/3 of untreated rats
Excerpt: First a membrane target located on the LSt neurons is identified. […] Identification of the SPR receptor on LSt cells enable the use of the targeted toxin SSP-SAP, which consists of the ribosome inhibitor protein toxin saporin (SAP) conjugated to a substance P analogue (SSP) with high affinity for SPR. SSP-SAP is infused into the L3-4 spinal cord at the location of the LSt cells in sexually experienced or sexually naive male rats. Male rats are allowed to mate with a receptive female during 6 pre-operative sessions (3 ejaculations or 100 minutes each).
All procedures are approved by the Animal Care and use Committee of the University of Cincinnati, Ohio and conformed to NIH guidelines involving vertebrate animals in research. Male rats are deeply anesthetized using ketamine/xylazine and laminectomy of L3 and L4 is performed. […]
Control animals are injected with non-conjugated equimolar concentrations of SAP. […] Latencies and numbers of mounts, intromissions, and ejaculations are recorded, and vaginas of females are checked for seminal plugs multiple times during mating tests. […]
Non-specific lesioning is determined by counting neurons visualized by neuronal marker N-IR. SPR containing cells are also counted in a standard area in the dorsal horn, as illustrated in FIG. 2A (area 2), to determine if lesioning is restricted to the area surrounding the central canal. […]

LSt neurons [4] = test: Optical density of galanin-IR and SPR-IR around IML, CAN and SPN after LSt lesion; format: in vivo, rats
Excerpt: In these areas galanin-IR is present in fibers, while SPR-IR is located in neurons and fibers. […] In contrast, SPR-IR is not reduced following LSt lesions.
Following the final behavior test, animals are perfused intracardially with 4% paraformaldehyde and spinal cord tissue is collected for further processing. Spinal cords are cut into 35μm coronal sections and collected in 12 parallel series. Adjacent sections are stained for galanin, SPR or neuronal marker N using the general procedures as described in W. Truitt, M. Shipley, J. Veening, L. Coolen, J. Neurosci (2002). The primary antibodies and concentrations that are used include: Galanin—rabbit anti-galanin at 1:80,000 (PenLabs), Substance P receptor—rabbit anti-NK1 at 1:1,000 (Advanced Targeting Systems), and Neuronal marker N—mouse anti-NeuN at 1:10,000 (Chemicon).

[5] = Motor impairment after surgery; format: in vivo; conditions: number of SAP-injected control rats excluded; 10 excluded in total (3 SSP-SAP)
Procedure: as §1

With `CCCN(CCC)C1CCc2cccc(O)c2C1` (centres unmarked) [8-OH-DPAT, 8-hydroxy-2-(di-n-propylamino) tetralin] the “activation of Galanin neurons (Fos)” value (LSt neurons [1]; 8-OH-DPAT alone, no exposure to female (DPc group)) was “do not result in activation”, the “Galanin-IR neurons containing Fos-IR” value (LSt neurons [1]; E1-DP males, after one ejaculation) was 85.55%±1.76 and the “mean number of galanin-IR neurons” value (LSt neurons [1]; two groups (one ejaculation / no female), order of values not stated) was 33.67±4.06 and 33.33±5.53. The “average number of intromissions prior to ejaculation” value (male rats) was 1.33±0.67 and the “average number of mounts prior to ejaculation” value (male rats) was 2.33±1.20.
With saporin the “display of ejaculatory behavior” value (LSt neurons [2]) was “continue to ejaculate regularly”, the “lesions of LSt neurons” value (LSt neurons [3]) was “no lesions” and the CAN-SPR optical density (LSt neurons [4]; Substance P receptor-IR around central autonomic nucleus, group in label) was 380.26 ± 39.06 pixels (×1,000). For the same compound, the IML-SPR optical density (LSt neurons [4]; Substance P receptor-IR around intermediolateral column, group in label) was 209.91 ± 30.92 pixels (×1,000), the SPN-SPR optical density (LSt neurons [4]; Substance P receptor-IR around sacral parasympathetic nucleus, group in label) was 392.68 ± 50.65 pixels (×1,000) and the CAN-galanin optical density (LSt neurons [4]; galanin-IR around central autonomic nucleus, group in label) was 128.84 ± 25.81 pixels (×1,000). For the same compound, the IML-galanin optical density (LSt neurons [4]; galanin-IR around intermediolateral column, group (SAP, SSP-il, SSP-les) in label) was 58.82 ± 12.85 pixels (×1,000), the SPN-galanin optical density (LSt neurons [4]; galanin-IR around sacral parasympathetic nucleus, group in label) was 137.75 ± 14.99 pixels (×1,000) and the “rats with obvious motor impairment after surgery (excluded)” value [5] was 7.
